Assay [1] in a line: Inhibition of HCV recombinant NS5B polymerase. More on the design: species or system Hepacivirus hominis.
The subject of assay [2] is Hepatitis C virus. Put plainly: Antiviral activity against Hepatitis C virus by cell based replicon assay. It counts as functional, organism-based, Hepacivirus hominis.

Consider `N#Cc1c(O)nsc1Nc1ccc(F)cc1`, for which the IC50 in assay [1] stood at 1200 nM.
For `N#Cc1c(O)nsc1Nc1cc(C(F)(F)F)cc(C(F)(F)F)c1`, in assay [1], the IC50 came out at 5900 nM. In assay [2], this molecule showed an EC50 of 2000 nM.
For the molecule `N#Cc1c(O)nsc1Nc1cccc(S(N)(=O)=O)c1`, the IC50 in assay [1] came to 9700 nM.
As to `N#Cc1c(O)nsc1Nc1cc(Br)ccc1OCc1ccccc1`, the IC50 in assay [1] is 300 nM.
With `N#Cc1c(O)nsc1Nc1cccc(F)c1`, the IC50 in assay [1] is 900 nM. Besides, the EC50 in assay [2] amounted to 2900 nM.
As for `Cc1cc(C)cc(Nc2snc(O)c2C#N)c1`, the half-maximal inhibitory concentration (IC50) in assay [1] was above 100000 nM.
Consider `N#Cc1c(O)nsc1Nc1cc(Cl)cc(Cl)c1`, for which the IC50 in assay [1] amounted to 200 nM. In assay [2], this molecule returned an EC50 of 100 nM.
On to `COC(=O)c1ccc(Cl)cc1Nc1snc(O)c1C#N`, for which the concentration for half-maximal inhibition (IC50) in assay [1] turned out to be 4700 nM.
On the same count and under the same terms, next, `CS(=O)(=O)c1cccc(Nc2snc(O)c2C#N)c1`: 9700 nM.
For the molecule `N#Cc1c(O)nsc1Nc1ccc(I)cc1`, the IC50 in assay [1] is 1200 nM. The EC50 in assay [2] was found to be 1100 nM.
Turning to `N#Cc1c(O)nsc1Nc1cc(Cl)cc(S(=O)(=O)NC23CC4CC(CC(C4)C2)C3)c1`, in assay [1], the concentration for half-maximal inhibition (IC50) was 1800 nM.
Consider `CCCCS(=O)(=O)c1cccc(Nc2snc(O)c2C#N)c1`, for which, in assay [1], the IC50 is 8300 nM.
Same read-out and setting: next, `COC(=O)c1cc(Nc2snc(O)c2C#N)cc(C(F)(F)F)c1`: 2000 nM; `N#Cc1c(O)nsc1Nc1cc(Br)ccc1OCc1ccc2ccccc2c1`: 1700 nM.
Still for that read-out and setting: next, `N#Cc1c(O)nsc1Nc1cccc(S(=O)(=O)NC23CC4CC(CC(C4)C2)C3)c1`: 1400 nM.
The same measure, in the same setting: next, `N#Cc1c(O)nsc1Nc1cc(C(F)(F)F)cc(S(=O)(=O)NC23CC4CC(CC(C4)C2)C3)c1`: 3500 nM.
With `N#Cc1c(O)nsc1Nc1cc(Br)cc(C(F)(F)F)c1`, in assay [1], the IC50 is 300 nM.
On to `N#Cc1c(O)nsc1Nc1cc(F)ccc1Oc1ccccc1`, for which the IC50 in assay [1] turned out to be 500 nM. The EC50 in assay [2] was 3400 nM.
In the case of `N#Cc1c(O)nsc1Nc1ccccc1Oc1ccccc1`, in assay [1], the concentration for half-maximal inhibition (IC50) stood at 1300 nM.
Still for that read-out and setting: next, `N#Cc1c(O)nsc1Nc1cc(Cl)ccc1OCc1ccc2ccccc2c1`: 6400 nM.
With `N#Cc1c(O)nsc1Nc1cc(F)cc(F)c1`, the IC50 in assay [1] came out at 300 nM. Moreover, in assay [2], the EC50 was found to be 220 nM.
Turning to `N#Cc1c(O)nsc1Nc1cc(Cl)ccc1OCc1ccccc1`, the 50% inhibitory concentration (IC50) in assay [1] is 1000 nM.
The same measure, in the same setting: next, `N#Cc1c(O)nsc1Nc1ccc(Cl)cc1Cl`: 700 nM; `N#Cc1c(O)nsc1Nc1nc2ccc(F)cc2s1`: 44000 nM; `COc1cccc(Nc2snc(O)c2C#N)c1`: above 100000 nM.
`N#Cc1c(O)noc1Nc1cc(Br)cc(Br)c1`: the IC50 in assay [1] worked out at 33000 nM.
As for `COC(=O)c1ccc(-c2ccc(Cl)cc2Nc2snc(O)c2C#N)o1`, the IC50 in assay [1] worked out at 1800 nM.
Take `N#Cc1c(O)nsc1Nc1cc(C(=O)O)cc(C(F)(F)F)c1`: the 50% inhibitory concentration (IC50) in assay [1] stood at 1500 nM.

A word on the IC50: it is the concentration that gives 50% inhibition. For orientation: EC50 means the midpoint of the concentration-response curve.
